In PubChem BioAssay AID1745844 (Carcinogenic Potency Database (CPDB), 2022):
Values joined by “and” are separate entries in the source; they are usually repeats but may differ in a detail not shown here. Equal values may be shown once. Active and inactive are the calls of the source. No rule for the calls is given here.

System: rodent lifetime carcinogenesis bioassay, tumor incidence TD50
Assay: chronic cancer bioassays in animals – CPDB, compiled studies (AID 1745844)
Details: rat

ClCCl
carcinogen call (strain Fischer 344, females, in drinking water, site: liver, lesion: hepatocellular carcinoma, dosed 78 weeks, study length 104 weeks): negative (inactive) | TD50 (strain Fischer 344, females, in drinking water, site: liver, lesion: hepatocellular carcinoma, dosed 104 weeks, study length 104 weeks): 3630 mg/kg/day (inactive) | carcinogen call (strain Fischer 344, females, in drinking water, site: liver, lesion: neoplastic nodule, dosed 78 weeks, study length 78 weeks): negative (inactive) | TD50 (strain Fischer 344, females, in drinking water, site: liver, lesion: neoplastic nodule, dosed 78 weeks, study length 104 weeks): 1540 mg/kg/day (inactive) | TD50 (strain Fischer 344, females, in drinking water, site: liver, lesion: neoplastic nodule, dosed 104 weeks, study length 104 weeks): 2340 mg/kg/day (inactive) | TD50 (strain Fischer 344, females, in drinking water, site: liver, lesion: several types, types named in the paper, dosed 78 weeks, study length 104 weeks): 1540 mg/kg/day (inactive) | TD50 (strain Fischer 344, females, in drinking water, site: liver, lesion: several types, types named in the paper, dosed 104 weeks, study length 104 weeks): 1430 mg/kg/day (inactive) | TD50 (strain Fischer 344, females, inhaled, site: all sites, lesion: mononuclear-cell leukemia, dosed 102 weeks, study length 104 weeks): 1280 mg/kg/day | TD50 (strain Fischer 344, females, inhaled, site: any site (literature study), lesion: several types, types named in the paper, dosed 102 weeks, study length 104 weeks): 501 mg/kg/day | TD50 (strain Fischer 344, females, inhaled, site: liver, lesion: hepatocellular adenoma + hepatocellular carcinoma + neoplastic nodule, dosed 102 weeks, study length 104 weeks): 4270 mg/kg/day | TD50 (strain Fischer 344, females, inhaled, site: liver, lesion: hepatocellular carcinoma + neoplastic nodule, dosed 102 weeks, study length 104 weeks): 4270 mg/kg/day | TD50 (strain Fischer 344, females, inhaled, site: mammary gland, lesion: adenocarcinoma, NOS + adenoma, NOS + fibroadenoma + mixed tumor, malignant, dosed 102 weeks, study length 104 weeks): 670 mg/kg/day | TD50 (strain Fischer 344, females, inhaled, site: mammary gland, lesion: adenocarcinoma, NOS + adenoma, NOS + fibroadenoma, dosed 102 weeks, study length 104 weeks): 630 mg/kg/day | TD50 (strain Fischer 344, females, inhaled, site: mammary gland, lesion: adenoma, NOS + fibroadenoma, dosed 102 weeks, study length 104 weeks): 598 mg/kg/day | TD50 (strain Fischer 344, females, inhaled, site: mammary gland, lesion: fibroadenoma, dosed 102 weeks, study length 104 weeks): 632 mg/kg/day | carcinogen call (strain Fischer 344, males, in drinking water, site: liver, lesion: hepatocellular carcinoma, dosed 78 weeks, study length 104 weeks): negative (inactive) | carcinogen call (strain Fischer 344, males, in drinking water, site: liver, lesion: hepatocellular carcinoma, dosed 104 weeks, study length 104 weeks): negative (inactive) | carcinogen call (strain Fischer 344, males, in drinking water, site: liver, lesion: neoplastic nodule, dosed 78 weeks, study length 78 weeks): negative (inactive) | TD50 (strain Fischer 344, males, in drinking water, site: liver, lesion: neoplastic nodule, dosed 78 weeks, study length 104 weeks): 1610 mg/kg/day (inactive) | carcinogen call (strain Fischer 344, males, in drinking water, site: liver, lesion: neoplastic nodule, dosed 104 weeks, study length 104 weeks): negative (inactive) | TD50 (strain Fischer 344, males, in drinking water, site: liver, lesion: several types, types named in the paper, dosed 78 weeks, study length 104 weeks): 3660 mg/kg/day (inactive) | carcinogen call (strain Fischer 344, males, in drinking water, site: liver, lesion: several types, types named in the paper, dosed 104 weeks, study length 104 weeks): negative (inactive) | TD50 (strain Fischer 344, males, inhaled, site: any site (literature study), lesion: several types, types named in the paper, dosed 102 weeks, study length 104 weeks): 539 mg/kg/day | TD50 (strain Fischer 344, males, inhaled, site: mammary gland + subcutaneous tissue, lesion: adenoma, NOS + fibroadenoma + fibroma, dosed 102 weeks, study length 104 weeks): 917 mg/kg/day | TD50 (strain Fischer 344, males, inhaled, site: mammary gland, lesion: adenoma, NOS + fibroadenoma, dosed 102 weeks, study length 104 weeks): 1640 mg/kg/day | TD50 (strain Fischer 344, males, inhaled, site: mammary gland, lesion: fibroadenoma, dosed 102 weeks, study length 104 weeks): 1770 mg/kg/day | TD50 (strain Fischer 344, males, inhaled, site: multiple organs + tunica vaginalis, lesion: mesothelioma, NOS + mesothelioma, malignant, dosed 102 weeks, study length 104 weeks): 1440 mg/kg/day | TD50 (strain Fischer 344, males, inhaled, site: subcutaneous tissue, lesion: fibroma + sarcoma, NOS, dosed 102 weeks, study length 104 weeks): 1990 mg/kg/day | TD50 (strain Fischer 344, males, inhaled, site: subcutaneous tissue, lesion: fibroma, dosed 102 weeks, study length 104 weeks): 2180 mg/kg/day | TD50 (strain Fischer 344, males, inhaled, site: tunica vaginalis, lesion: mesothelioma, NOS + mesothelioma, malignant, dosed 102 weeks, study length 104 weeks): 1640 mg/kg/day | TD50 (strain Fischer 344, males, inhaled, site: tunica vaginalis, lesion: mesothelioma, malignant, dosed 102 weeks, study length 104 weeks): 4310 mg/kg/day | TD50 (strain Sprague-Dawley Spartan, females, inhaled, site: liver, lesion: Kupffer-cell sarcoma, dosed 104 weeks, study length 104 weeks): 9340 mg/kg/day (inactive) | carcinogen call (strain Sprague-Dawley Spartan, females, inhaled, site: liver, lesion: hepatocellular carcinoma, dosed 52 weeks, study length 104 weeks): negative (inactive) | TD50 (strain Sprague-Dawley Spartan, females, inhaled, site: liver, lesion: hepatocellular carcinoma, dosed 104 weeks, study length 104 weeks): 9520 mg/kg/day (inactive) | carcinogen call (strain Sprague-Dawley Spartan, females, inhaled, site: liver, lesion: neoplastic nodule, dosed 52 weeks, study length 104 weeks): negative (inactive) | carcinogen call (strain Sprague-Dawley Spartan, females, inhaled, site: liver, lesion: neoplastic nodule, dosed 104 weeks, study length 104 weeks): negative (inactive) | TD50 (strain Sprague-Dawley Spartan, females, inhaled, site: mammary gland, lesion: adenocarcinoma, dosed 52 weeks, study length 104 weeks): 1140 mg/kg/day (inactive) | carcinogen call (strain Sprague-Dawley Spartan, females, inhaled, site: mammary gland, lesion: adenocarcinoma, dosed 104 weeks, study length 104 weeks): negative (inactive) | TD50 (strain Sprague-Dawley Spartan, females, inhaled, site: mammary gland, lesion: benign tumor, dosed 52 weeks, study length 104 weeks): 38.1 mg/kg/day | TD50 (strain Sprague-Dawley Spartan, females, inhaled, site: mammary gland, lesion: benign tumor, dosed 104 weeks, study length 104 weeks): 4430 mg/kg/day and 1550 mg/kg/day | TD50 (strain Sprague-Dawley Spartan, females, inhaled, site: mammary gland, lesion: fibroadenoma, dosed 52 weeks, study length 104 weeks): 37.7 mg/kg/day | TD50 (strain Sprague-Dawley Spartan, females, inhaled, site: mammary gland, lesion: fibroadenoma, dosed 104 weeks, study length 104 weeks): 631 mg/kg/day | carcinogen call (strain Sprague-Dawley Spartan, males, inhaled, site: liver, lesion: one or several types, types not named, dosed 86 weeks, study length 86 weeks): negative (inactive) | TD50 (strain Sprague-Dawley Spartan, males, inhaled, site: mammary gland, lesion: benign tumor, dosed 104 weeks, study length 104 weeks): 5080 mg/kg/day | TD50 (strain Sprague-Dawley Spartan, males, inhaled, site: salivary gland, lesion: several types, types named in the paper, dosed 104 weeks, study length 104 weeks): 4260 mg/kg/day | TD50 (strain Sprague-Dawley, females, by gavage, site: any site (literature study), lesion: malignant tumor, dosed 64 weeks, study length 104 weeks): 1740 mg/kg/day | TD50 (strain Sprague-Dawley, females, by gavage, site: mammary tissue, wider than the gland, lesion: malignant tumor, dosed 64 weeks, study length 104 weeks): 1130 mg/kg/day | TD50 (strain Sprague-Dawley, females, by gavage, site: mammary tissue, wider than the gland, lesion: several types, types named in the paper, dosed 64 weeks, study length 104 weeks): 1030 mg/kg/day | TD50 (strain Sprague-Dawley, females, inhaled, site: any site (literature study), lesion: malignant tumor, dosed 104 weeks, study length 104 weeks): 477 mg/kg/day | TD50 (strain Sprague-Dawley, females, inhaled, site: any site (literature study), lesion: several types, types named in the paper, dosed 104 weeks, study length 104 weeks): 32.1 mg/kg/day | TD50 (strain Sprague-Dawley, females, inhaled, site: mammary tissue, wider than the gland, lesion: several types, types named in the paper, dosed 104 weeks, study length 104 weeks): 37.8 mg/kg/day | TD50 (strain Sprague-Dawley, males, by gavage, site: any site (literature study), lesion: malignant tumor, dosed 64 weeks, study length 104 weeks): 935 mg/kg/day
